For data set [1], the system named is MDA-MB-231 cell line and MCF7 cell line. Put plainly: MTT assay of Peptide 5-2CB. It counts as cell-based, human. The source says: To support this assumption, a CP2c protein region with which Peptide 5-2C interacts and amino acids in the region directly binding to Peptide 5-2C need to be identified. Thus, an attempt was made to obtain mutant CP2c proteins in which polar amino acids present in the CP2c region binding with Peptide 5 shown in FIG. 1 were substituted with Ala and analyze the binding of the mutant CP2c proteins with Peptide 5-2C by enzyme-linked immunosorbent assay (ELISA). To facilitate this analysis, Peptide 5-2CB was synthesized in which biotin tag is bonded to the C-terminal Pro residue of Peptide 5-2C. To confirm whether Peptide 5-2CB induces cancer cell-specific growth interruption and apoptosis, like Peptide 5-2C, MTT assay was conducted on two different batches of Peptide 5-2CB in MDA-MB-231 cell line and MCF7 cell line by the same method as in Example 5.1. IC50 values were also calculated from the results of MTT assay. To obtain 19 mutant CP2c proteins in which polar amino acids present in the CP2c region binding with Peptide 5-2C were substituted with Ala, oligonucleotides having sequences encoding the corresponding mutant amino acids were synthesized and site-directed mutagenesis was carried out. The base sequences encoding the mutant CP2c genes were cloned into the pGEX4 vector and mutant GST-fusion CP2c proteins were purified using beads bound with antibody against GST-tag. […]

In data set [2] the test system is human embryonic stem cells (hESCs, H9).
Excerpt: MEF cells labeled with rhodamine were often used to distinguish them from hESC-derived cells.
Data set [3] concerns human blood cancer cell lines (K562, HEL, HL60). Put plainly: MTT cell viability, human blood cancer cell lines. The class given is cell-based. The settings on record: 0-10 μM, 24-96 h.
Description: (§1) Liver cancer cell lines (HepG2, Hep3B) were inoculated into 96-well plates at a density of 3000 cells/well, and then 50 μl of culture solution was added thereto. Cells were cultured at 37° C. and 5% CO2 for 1 h. […] Cells were cultured at 37° C. and 5% CO2 for 24, 48, 72, and 96 h. After completion of the culture, the remaining culture solution was removed from the well plates, the cultures were diluted with MTT solution (3-(4,5-dimethylthiazol-2-yl)-2,5-diphenyltetrazole bromide) to a final density of 500 μg/ml, and cells were cultured at 37° C. and 5% CO2 for 3 h. The remaining MTT solution was removed and 150 μl of dimethyl sulfoxide (DMSO) was added. The reaction was carried out at room temperature for 20 min. After completion of the reaction, absorbance was measured using a microplate reader.
Data set [4] relates to breast cancer cell lines (MCF7, MDA-MB-231). Put plainly: MTT cell viability, breast cancer cell lines. It counts as cell-based, human. Particulars: 0-10 μM, 24-96 h.
Description: as §1
In data set [5] the test system is human embryonic kidney cancer cell line (293T). As to the kind of experiment: MTT cell viability, 293T. It counts as cell-based. The settings on record: 0-10 μM, 24-96 h.
Description: as §1
In data set [6] the test system is CP2c. Put plainly: Luciferase reporter assay of CP2c transcriptional activity in 293T cells. It counts as cell-based, human. The settings on record: 2 μM, 48 h, wild-type CP2c binding sites, compared with FQI1. Here is the method: 293T cells were inoculated into a 12-well plate at a density of 1×10^5 cells/well. 12 h after inoculation, cells were transfected with combinations of a reporter vector (the wild-type reporter links the enhancer sequence of the GATA-1 gene including twice repeated CP2c-binding sites to the upstream of the luciferase gene and Mut 1/3, Mut 2/4, and Mut 1-4 reporters cause mutations of the CP2c binding sites present in the enhancer sequence) and various Flag-CP2c, HA-CP2b, and HA-PIAS1 expression vectors by using the effectene method. After 1-h culture, cells were treated with FQI1, Peptide 5C, and Peptide 5-2C at concentrations of 2 μM, followed by 48-h culture. Cells were harvested and lysed in 250 μl of passive cell lysis buffer (Promega) to obtain an extract. 20 μl of the cell extract and a dual-luciferase assay kit (Promega) were used to measure the activity of the labeled luciferase gene in GLOMAX (Promega) (the expression of each expression vector was confirmed by Western blotting).

For data set [7], the system named is glioblastoma cell lines (U251, U87MG, U343). Put plainly: MTT cell viability, glioblastoma cell lines. It counts as cell-based, human. The settings on record: 0-10 μM, 24-96 h.
Description: as §1
For data set [8], the system named is liver cancer cell lines (HepG2, Hep3B). As to the kind of experiment: MTT cell viability, liver cancer cell lines. The class given is cell-based, human. The settings on record: 0-10 μM, 24-96 h.
Description: as §1
Data set [9] relates to BEAS2B and MCF10A normal epithelial cell lines.
Description: as §1
The test system of data set [10] is normal cell lines (MCF10A, BEAS2B, hMSCs, mouse primary T cells).
Description: (§2) Liver cancer cell lines (HepG2, Hep3B), a human embryonic kidney cell line (293T), breast cancer cell lines (MCF-7, MDA-MB-231), blood tumor cell lines (K562, HEL, HL60), glioblastoma cell lines (U251, U373MG, U87MG), a mammary epithelial cell line (MCF10A), a lung epithelial cell line (BEAS2B), human mesenchymal stem cells (hMSCs), and mouse primary T cells (resting and activated T cells) were inoculated into 96-well plates at a density of 3,000 cells/well, supplemented with 50 μl of culture solution, and cultured at 37° C. and 5% CO2 for 1 h. […] After completion of the culture, cells were observed under an inverted phase contrast microscope and their morphological changes were imaged.
The subject of data set [11] is cancer cell lines (HepG2, Hep3B, 293T, MCF-7, MDA-MB-231, K562, HEL, HL60, U251, U373MG, U87MG). As to the kind of experiment: Microscopic observation of growth inhibition and apoptosis, cancer cell lines. The class given is cell-based, human. The settings on record: 2 μM, 48 h.
Description: as §2
The target in data set [12] is T1, CP2c (Mus musculus, UniProt Q9ERA0).
T1 construct: 5 μg of the nuclear extract and an [α-32p] dCTP-labeled DNA probe; endogenous in cells; host or cells: MEL (murine erythroid leukemia) cells, HMBA-differentiated, nuclear extract
T1 sequence (Q9ERA0 1-502): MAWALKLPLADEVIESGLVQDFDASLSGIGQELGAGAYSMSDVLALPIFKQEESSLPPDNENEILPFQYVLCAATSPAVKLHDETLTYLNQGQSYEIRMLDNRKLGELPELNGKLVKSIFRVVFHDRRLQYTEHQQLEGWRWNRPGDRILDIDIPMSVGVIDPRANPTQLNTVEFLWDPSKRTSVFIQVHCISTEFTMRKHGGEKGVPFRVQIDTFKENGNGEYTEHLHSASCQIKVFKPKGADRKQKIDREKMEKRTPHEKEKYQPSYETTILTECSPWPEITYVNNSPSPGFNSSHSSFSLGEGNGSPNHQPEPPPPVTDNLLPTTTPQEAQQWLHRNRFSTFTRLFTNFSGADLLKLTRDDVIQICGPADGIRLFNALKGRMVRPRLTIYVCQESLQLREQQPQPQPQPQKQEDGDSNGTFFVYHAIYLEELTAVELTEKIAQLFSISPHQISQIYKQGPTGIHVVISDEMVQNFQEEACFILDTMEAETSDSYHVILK
As to the kind of experiment: DNA immunoprecipitation (DIP) assay of CP2c-DNA binding. The settings on record: 0.2, 0.5, and 1 μg peptide; MEL nuclear extract; α-globin promoter probe. The procedure:
To analyze whether the five peptides identified in Example 1.1 bind to CP2c in cells to affect the ability of CP2c to bind to DNA, DNA immunoprecipitation (DIP) assay was performed as disclosed in another preceding research conducted by the present inventors (Kim et al., A DNA immunoprecipitation assay used in quantitative detection of in vitro DNA-protein complex binding, Analytical Biochemistry. 2013; 441: 147-151).
In summary, the differentiation of a murine erythroid leukemia (MEL) cell line was induced by treatment with 5 mM hexamethylene bisacetamide (HMBA) and, on day 2 after differentiation, a cellular nuclear extract was separated. […]
Subsequently, 5 μg of the nuclear extract and an [α-32p] dCTP-labeled DNA probe (a sequence corresponding to the common CP2c binding site present in mouse α-globin promoter and between −156 and −124 in the start codon of the α-globin gene, see the paper of Kim et al. for details of the sequence) were allowed to react with a binding buffer (4% glycerol, 10 mM Tris-HCl, 1 mM DTT, 1 mM EDTA, and 0.1% NP-40) for 15 min, and gradually increasing amounts (0.2, 0.5, and 1 μg) of the identified CP2c binding peptides (Peptide 5, Peptide 8, Peptide 13, Peptide 21, and Peptide 31) were added thereto. […] The CP2c protein was removed from the DNA probe and the remaining amount of the DNA probe was measured using a scintillation counter. […]

Data set [13] addresses T1, CP2c. The settings on record: Kim et al., Analytical Biochemistry 2013; cited from earlier work.
For a further data set, the target named is T2, GST-CP2c wild type (UniProt Q9ERA0 Q9ERA0:1-502).
T2 sequence: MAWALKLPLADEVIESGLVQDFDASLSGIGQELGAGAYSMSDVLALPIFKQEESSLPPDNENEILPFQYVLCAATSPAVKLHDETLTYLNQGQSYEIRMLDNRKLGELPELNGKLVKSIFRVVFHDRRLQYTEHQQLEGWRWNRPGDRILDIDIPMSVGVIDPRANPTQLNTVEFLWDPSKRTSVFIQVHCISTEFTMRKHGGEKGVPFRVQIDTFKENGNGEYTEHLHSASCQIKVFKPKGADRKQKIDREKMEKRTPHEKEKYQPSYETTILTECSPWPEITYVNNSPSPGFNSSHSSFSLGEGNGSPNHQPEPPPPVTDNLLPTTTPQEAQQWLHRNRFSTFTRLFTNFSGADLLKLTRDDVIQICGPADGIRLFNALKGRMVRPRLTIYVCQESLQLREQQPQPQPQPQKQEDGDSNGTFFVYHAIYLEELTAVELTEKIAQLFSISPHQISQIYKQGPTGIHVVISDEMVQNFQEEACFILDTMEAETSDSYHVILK
Put plainly: pulldown; DNA-IP, values only in figure. Particulars: tags: GST fusion, E. coli; label: 32P.

No end group written: not given here. *: point of attachment. Biotin = O=C1N[C@H]2[C@H](CS[C@H]2CCCCC(=O)*)N1

For the molecule “Peptide 5-2CB: biotin-tagged Lys linked to the C-terminal Cys residue of Peptide 5-2C (NYPQRPCRGDKGPDCK(Biotin); not fully specified; cysteine pairing not given here)”, in data set [1] (48 h), the “IC50 compared with Peptide 5-2C” value was “had IC50 values similar to Peptide 5-2C”. For the same molecule, the “cancer cell growth interruption and apoptosis (MTT)” value in data set [1] (two batches, increasing concentrations) was “induced cancer cell-specific cell growth interruption and apoptosis”.

On to “Ac-HERRESNYPQRPCRGCRGDKGPDC-Amide (Ac-HERRESNYPQRPCRGCRGDKGPDC-NH2; ends and bridges not checked) [Peptide 5C]”, for which the “cytotoxicity (MTT) in hESCs” value in data set [2] is recorded as “slight cytotoxicity at high concentrations”. The “relative viability (MTT), K562, HEL, HL60, compared with FQI1” value in data set [3] is “slightly effectively inhibited the growth of the glioblastoma cell lines and induced apoptosis compared to FQI1”. In addition, the “relative viability (MTT), breast cancer cell lines, compared with FQI1” value in [4] is “more effectively inhibited the growth of the breast cancer cell lines and induced apoptosis than FQI1”. Also, the “relative viability (MTT), 293T, compared with FQI1” value in data set [5] was “inhibited the growth of the glioblastoma cell lines and induced apoptosis similarly to FQI1”. In addition, in the data set with CP2c [6], the “CP2c-mediated transcriptional activity (luciferase reporter)” value is “effectively inhibit CP2c-mediated transcriptional activity compared to FQI1”. For the same molecule, in data set [7], the “relative viability (MTT), glioblastoma cell lines, compared with FQI1” value was “more effectively inhibited the growth of the glioblastoma cell lines and induced apoptosis than FQI1”. In addition, the “relative viability (MTT), liver cancer cell lines, compared with FQI1” value in [8] was “more effectively inhibited the growth of the liver cancer cell lines and induced apoptosis than FQI1”. The “growth inhibition and apoptosis induction of normal control cell lines (IC50 calculation)” value in data set [9] was “inhibited cell growth and induced apoptosis, similarly to the treatment with Peptide 5C”. Further, the “effect on normal cell lines (microscopy)” value in data set [10] is reported as “without substantially affecting the normal cell lines”. Besides, in data set [11], the “growth inhibition and apoptosis induction of cancer cell lines (microscopy)” value is “specifically inhibited the growth of the cancer cell lines and induced apoptosis”.

On to HERRESNYPQRP [Peptide 5], for which, in the data set with CP2c [12], the “inhibition of CP2c-DNA binding (DIP assay)” value is on record as “specifically inhibited the CP2c-DNA binding in a concentration-dependent manner”. Also, the “inhibition of CP2c-DNA binding (DNA immunoprecipitation)” value with CP2c [13] is on record as “inhibits CP2c-DNA binding in a concentration-dependent manner”.

B1: alpha-globin promoter CP2c site probe (dsDNA)
DNA 1: GATCCCAAGTTTTACTCGGTAGAGCAAGCACAAACCAGG
DNA 2: CCTGGTTTGTGCTTGCTCTACCGAGTAAAACTTGGGATC
For the molecule B1, the binding result in the data set with GST-CP2c wild type is given as “binds”.
